Assay results published in patent US20200330447A1, “CANCER TREATMENT VIA REPOSITIONED TRICYCLIC ANTI-DEPRESSANT-LIKE DRUGS AS ANTI-CANCER AGENTS AND NEW COMBINATIONS OF SUCH DRUGS” (Board of Supervisors of Louisiana State University and …, priority 2015, published 2020).

Experiments:
Type in all cases: cell-based
[1] = test system: DU145 prostate cancer cells; assay: High content imaging-based screen (Cellomics) for lysosome migration inhibitors; settings: pH 6.4 media, 2 micrograms per ml, 16 hours
Procedure: DEVELOPMENT OF A HIGH CONTENT IMAGING-BASED SCREEN: The followings process was followed to identify chemicals that were lysosome migration inhibitors. DU145 prostate cancer cells were seeded in 96 well flat bottom black walled plates at 4,500 cells per well. All compounds and controls were exposed to RPMI bicarbonate buffered media (pH 6.4). RPMI buffered media titrated at pH of 6.4-6.8 was added to column 12 after the media was removed and serves as negative control (low acidic pH so lysosomes move out). […] The 4 compound libraries chosen to screen were the NIH Clinical Collection (450 drugs), Prestwick (1200 drugs), Prestwick phytochemical and the Green Pharma collection (xx drugs). Compounds were diluted with buffered RPMI media to 2 micrograms per ml concentrations. Individual compounds to be screened were added robotically as a single compound per well through columns 2-11. Plates were incubated at 37 degrees in 5% CO2 for 16 hours then the medium was removed and the cells were fixed with 4% cold paraformaldehyde (Sigma-Aldrich) for 20 minutes at 4 degrees. Fixed cells were washed once with PBS. To stain lysosomes, cells were incubated for 1 hour with LAMP1 antibody (H4A3) diluted in BSP (containing 0.25% BSA and 0.1% saponin in PBS) at 1/200. Cells were then washed with PBS 3 times then incubated for 1 hour with Dylight Donkey anti-mouse diluted at 1/200 in BSP. To stain the nucleus, cells were then washed with PBS 3 times and incubated for 20 minutes with 1×DAPI diluted in PBS. DAPI was washed off with PBS and cells were maintained in PBS for the duration of the screening process. Plates were mounted and read in a Cellomics Arrayscan automated fluorescence imager. The Cellomics platform allows for high content throughput screening by combining fluorescence microscopy with a multi-parameter image analysis. Cells were photographed using 20× objective in 2 fluorescent channels. A total of 15 different fields in each well, and at least 300 cells were imaged per well. The biocompartmental analysis algorithm was used to identify each cell by its nucleus (channel 1 recognized by the DAPI stain) and to generate a cytoplasmic mask (ring) of 12 pixels width in which the inner ring was 6 pixels away from the nucleus. The algorithm calculates the number of lysosomes inside the ring as indicated by fluorescent LAMP-1 positive puncta in channel 2 as a mean ring spot count. Therefore, when lysosomes move away from the nucleus and disperse throughout the cytoplasm, the number of spots representing lysosomes inside the cytoplasmic ring increases (low pH conditions). By contrast, lysosomes cluster near the nucleus the numbers of spot inside the cytoplasmic ring decreases (EIPA treated).
Z′-factor is a simple statistical coefficient used to assess performance and quality of the assay in high-throughput screening. It is calculated with the formula: Z′=1-(3σct+3σcb)/|μct−μcb|, where p indicates mean, a represents standard deviation, “ct” indicates the positive control, “cb” indicates the negative control. […] If the Z′ is more than 0.5, the assay is considered to be high quality assay.
The Z′ factor of the assay was determined from the EIPA (positive control) and low pH (negative control). Experiments were run in duplicate. Only plates with positive Z′ factor was used for analysis.

A172 cells = assay: Invasive structures in 3D culture
A172 glioblastoma cells [2] = assay: Wound invasion through matrigel, Incucyte; settings: for invasion: 5 or 10 μM, 8 h prior to wounding and addition of matrigel
Procedure: (§1) An important aspect of this technology is the showing that deptropine and pizotifen block tumor invasion using 3D assays. […] For this experiment A172 glioblastoma cells were treated with 5 or 10 μM deptropine or pizotifen or drug mix at 5 μM concentration for 8 h prior to the wounding and the addition of matrigel. Upon wounding, cells were allowed to migrate or invade through matrigel in the presence of DMSO, 5 or 10 μM deptropine or pizotifen or the drug mix at 5 μM concentration. EIPA, a known inhibitor of lysosomal outward movement, is the positive control. Motility and invasion were calculated by Incucyte platform that acquires real time images of invasion and motility and calculate the relative wound density percentage at different time points. Percent migration (FIG. 6A) or invasion (FIG. 6B) through matrigel in A172 glioblastoma cells in the presence of DMSO, 5 or 10 μM deptropine or pizotifen or the drug mix at 5 μM concentration. Error bars represent s.e.m. of 5 separate experiments. # statistical significance, p<0.001, versus both 1% FBS and DMSO; *, p<0.01 versus both 1% FBS and DMSO

LC3-II = assay: Autophagy: LC3-I/LC3-II western blot and GFP-LC3II microscopy; settings: A172 cells, overnight; for levels of LC3-II, western blot: deptropine 5 or 10 micromolar, pizotifen 5 micromolar; for association of GFP-LC3-II with puncta representing autophagosomes: microscopy
Procedure: A further embodiment of this technology is the use of deptropine and pizotifen to induce autophagy. A172 cells were treated with EIPA (1), Serum (2), Serum Free (3), DMSO (4, solvent control), rapamycin 0.5 micromolar (5), one micromolar (6), deptropine at 5 micromolar (7), 10 micromolar (8) or pizotifen at 5 micromolar (9) overnight and GFP-LC3II was visualized by microscopy or western blot analysis was performed to detect LC3-I and LC3-II forms.

A172 glioblastoma cells [3] = assay: Growth factor (HGF, EGF) induced trafficking of lysosomes to cell periphery; settings: 10 μM overnight, HGF (33 ng/ml) or EGF (100 ng/ml)
Procedure: In this embodiment deptropine and pizotifen also block lysosome peripheral movement in glioma cells treated with the growth factors HGF and EGF. Both of these growth factors interact with their receptors, c-Met and EGFR, respectively to induce glioma invasion. In this example, A172 glioblastoma cells were treated overnight with 10 μM deptropine or pizotifen in the presence or absence of HGF (33 ng/ml) or EGF (100 ng/ml). At the end of the incubation time, cells were fixed and stained for LAMP-1, filamentous actin, and nuclei. Representative merged IF images depicting the effect of DMSO, 10 μM deptropine or pizotifen and/or HGF, EGF on the distribution of lysosomes (red in color images) in A172 glioblastoma cells. Also shown here are actin (green in color images) and nuclei (blue in color images).

A172 glioblastoma cells [4] = assay: Wound motility (migration) assay, Incucyte; settings: for motility: 5 or 10 μM, 8 h prior to wounding; for motility (percent migration), single drug: either drug alone at 10 μM
Procedure: as §1

Erk signaling pathway = assay: Lysosome inward movement in the presence of the MAPK inhibitor U0126, and Erk western blot; settings: A172 cells, results not shown
Procedure: Turning to FIG. 8, deptropine and pizotifen are shown to act through the Erk signaling pathway. In this experiment, A172 cells were treated with deptropine and pizotifen at 5 μM concentrations for 4 hours in the presence of the MAPK inhibitor U0126. I.F. microscopy was then performed. This helped allow the determination of the mechanism of action of deptropine and pizotifen.

mTOR signaling pathway = assay: Western blot of phosphorylated S6K (mTOR signaling); settings: A172 cells, 4 hours
Procedure: Deptropine and pizotifen were added to A172 cells for 4 hours and western blot analysis was performed to measure levels of phosphorylated S6K, indicative of active mTOR signaling.

Row | SMILES | hit in screen for lysosome migration inhibitors (mean ring spot count) [1] | number of invasive structures formed in 3D culture (A172 cells) | invasion (A172 glioblastoma cells [2]) | levels of LC3-II, western blot (LC3-II) | association of GFP-LC3-II with puncta representing autophagosomes (LC3-II) | trafficking of lysosomes to cell periphery induced by growth factors (A172 glioblastoma cells [3]) | motility (A172 glioblastoma cells [4]) | motility (percent migration), single drug (A172 glioblastoma cells [4]) | Erk signaling pathway, western blot (Erk signaling pathway) | phosphorylation of S6K (mTOR signaling pathway) | invasion through matrigel (percent invasion) (A172 glioblastoma cells [2]; 10 μM)
1 | CN1[C@@H]2CC[C@H]1C[C@@H](OC1c3ccccc3CCc3ccccc31)C2 [deptropine, 3a-[(10, 11-dihydro-5H-dibenzo[a,d]cyclohepten-5-yl)oxy]1aH,5aH-tropane] | hits | effectively reduce the number of invasive structures | decrease | increases the levels of the proteins LC3-II | increase the association GFP-LC3-II with puncta | block trafficking of lysosomes to cell periphery | decrease | reduces motility but to a level that is determined to be significant | activate the Erk signaling pathway | eliminates the phosphorylation of S6K | 
2 | CN1CCC(=C2c3ccccc3CCc3sccc32)CC1 [pizotifen, 4-(1-methyl-4-piperidylidine)-9,10-dihydro-4H-benzo-[4,5]cyclohepta[1,2]-thiophene] | hits | effectively reduce the number of invasive structures | decrease | increases the levels of the proteins LC3-II | increase the association GFP-LC3-II with puncta | block trafficking of lysosomes to cell periphery | decrease | reduces motility but to a level that is determined to be significant | activate the Erk signaling pathway | eliminates the phosphorylation of S6K | significantly reduces invasion
